# Like-named read-outs stand apart in the source and are kept apart here.
# What was measured:
# [1] = Solubility in water, buffers and physiological fluids; assay type: physicochemical
# Description: Tipifarnib is a methyl-quinolinone with a molecular formula of C27H22Cl2N4O and molecular weight of 489.40. […] These are safe and well tested excipients that are commonly used in marketed products. The film coatings of the tablets contain hypromellose, titanium dioxide, lactose monohydrate, polyethylene glycol, and triacetin. “Tipifarnib derivative” as used herein refers not only to R208176 but also to molecules closely structurally related to either tipifarnib or R208176 with similar pharmacologic activity against HDV; this term includes, for example and without limitation, compounds described in U.S. Pat. Nos. 6,169,096; 6,365,600; 6,420,387; 6,734,194; 6,743,805; 6,838,467; and 7,253,183.
# R208176 is an off-white, non-hygroscopic and crystalline powder. It has a molecular weight of 501.4 Daltons and a molecular formula of C25H18Cl2N8.
# [2] = cited from earlier work
Compound,"solubility ([1]; 0.1 N HCl, simulated gastric fluid, read-out: solubility in 0.1 N HCl) [mg/mL]",solubility in 0.1 N NaOH ([1]; 0.1 N NaOH),"solubility ([1]; aqueous buffer, citrate-HCl buffer pH 4, read-out: solubility in citrate-HCl buffer pH 4) [mg/mL]",solubility in borate-HCl buffer pH 8 ([1]; borate-HCl buffer pH 8),solubility in borate-KCl—NaOH buffer pH 10 ([1]; borate-KCl—NaOH buffer pH 10),solubility in citrate-HCl buffer pH 2 ([1]; citrate-HCl buffer pH 2),solubility in citrate-NaOH buffer pH 6 ([1]; citrate-NaOH buffer pH 6),"solubility ([1]; gastric fluid, simulated gastric fluid, read-out: solubility in gastric fluid) [mg/mL]",solubility in intestinal fluid ([1]; intestinal fluid),solubility in water [1],solubility in 0.1 N HCl ([1]; 0.1 N HCl),solubility in citrate-HCl buffer ([1]; citrate-HCl buffer),solubility in citrate-NaOH buffer ([1]; citrate-NaOH buffer),solubility in phosphate buffers ([1]; phosphate buffers),"DLTs at 200 mg BID ([2]; 200 mg BID dose, dosed for 200 days)",patients stopping treatment due to adverse events (grade 3 or 4) ([2]; 13 cancer patients),"Dose limiting toxicities ([2]; cancer patients, continuous oral BID dosing)","MTD ([2]; cancer patients, orally BID, continuous dosing for up to 56 days) [mg]",Most common AEs ([2]; cancer patients)
Cn1cncc1[C@@](N)(c1ccc(Cl)cc1)c1ccc2c(c1)c(-c1cccc(Cl)c1)nc1nnnn12 [R208176],10 to 33,practically insoluble,0.1 to 1,practically insoluble,practically insoluble,slightly soluble,practically insoluble,10 to 33,practically insoluble,practically insoluble,–,–,–,–,–,–,–,–,–
"Cn1cncc1[C@@](N)(c1ccc(Cl)cc1)c1ccc2c(c1)c(-c1cccc(Cl)c1)cc(=O)n2C [tipifarnib, (R)-6-[amino(4-chlorophenyl)(1-methyl-1H-imidazol-5-yl)methyl]-4-(3-chlorophenyl)-1-methyl-2(1H)-quinolinone]",–,–,–,–,–,–,–,–,–,insoluble,moderately soluble,slightly soluble,insoluble,insoluble,No DLTs were observed,4 of 13,granulocytopenia and neuropathy,300,gastrointestinal-related
